Test system: LH secretion
Assay: LH secretion in ovariectomized mice after i.p. injection of a PRKA (serum LH by radioimmunoassay)
Format: in vivo
Experimental: Female mice (000664 C57BL/6J) were obtained from The Jackson Laboratory (Sacramento, Calif., USA) at 8 weeks of age. All animals were housed on a 12:12-h light-dark cycle (lights off at 1800) with food and water available ad libitum. All experiments were conducted in accordance with the National Institutes of Health (NIH) Animal Care and Use Guidelines and with approval of the Animal Care and Use Committee of the University of Washington.
Mice were ovariectomized 13 days prior to the experiment, which occurred at approximately 11 weeks of age. Mice were anesthetized with isoflurane and bilaterally ovariectomized (OVX). Briefly, the animal's ventral skin was shaved and cleaned, and small incisions were made in the skin and abdominal musculature. The gonads were identified and excised, the abdominal muscle was sutured, and the skin incision was closed with surgical clips.
Mice were injected i.p. (<500 μl) with vehicle [0.9% sterile saline (Hospira, Lake Forest, Ill., USA) with 3.6% sterile DMSO (Sigma Aldrich, Inc., St. Louis, Mo., USA), n=7] or the following doses of the PRKA, ICI204,448 hydrochloride (Tocris Bioscience, Bristol, UK), diluted in sterile saline/DMSO: 0.1 mg/kg (0.018% DMSO, n=6), 1 mg/kg (0.18% DMSO, n=4), 10 mg/kg (1.8% DMSO, n=5), or 20 mg/kg (3.6% DMSO, n=7). N.B. 1 mg/kg and 10 mg/kg groups run in different experiment/assay. […]

SMILES: CN(C(=O)Cc1ccc(Cl)c(Cl)c1)C(CN1CCCC1)c1cccc(OCC(=O)O)c1.Cl (racemic) [ICI 204,448 hydrochloride, (RS)-[3-[1-[[(3,4-Dichlorophenyl)acetyl]methylamino]-2-(1-pyrrolidinyl)ethyl]phenoxy]acetic acid hydrochloride]
- LH secretion (FIG. 2) (mice, 0.1, 1, 10, 20 mg/kg i.p., 1 mg/kg and 10 mg/kg in different experiment/assay): dose-dependent decrease
- LH post injection (ovariectomized mice, High Dose 20 mg/kg i.p., 20 minutes after injection, vs. Low Dose 0.1 mg/kg (P<0.01) and Vehicle (P<0.001)): significantly decreased
